42 compounds from patent US11168102B1, “Bicyclic heteroaryl compounds and uses thereof” (Revolution Medicines, Inc., priority 2019, dated 2021) can be followed below.

Assay [1] deals with SOS1 nucleotide exchange of wild-type KRAS (Homo sapiens (Human), UniProt Q07889). In words: Mode of action assay: inhibition of SOS1 nucleotide exchange activity (TR-FRET). To be noted: SOS1 catalytic domain (564-1049), avi-tagged KRAS (1-169), EDA-GTP-DY-647P1; three replicates. It is filed as biochemical.
The test system of assay [2] is cellular pERK in PC-9 cells (EGFR Ex19Del). In words: Potency assay: pERK (AlphaLISA SureFire Ultra p-ERK1/2) in PC-9 cells. It is filed as cell-based. To be noted: PC-9 cells (EGFR Ex19Del), 1 hour incubation, AlphaLISA SureFire Ultra p-ERK1/2, read-out: SOS1 pERK IC50.
For assay [3], the target named is SOS1 catalytic domain (residues 564-1049) (Homo sapiens (Human), UniProt Q07889). Kind of assay: Potency assay: binding affinity to SOS1 by Surface Plasmon Resonance (SPR). Particulars: avi-tagged SOS1 catalytic domain immobilized on sensor chip; 1:1 equilibrium binding fit.

Where two headings read alike, the source gives them in different places.

Chain of SOS1 nucleotide exchange of wild-type KRAS (Q07889 564-1049): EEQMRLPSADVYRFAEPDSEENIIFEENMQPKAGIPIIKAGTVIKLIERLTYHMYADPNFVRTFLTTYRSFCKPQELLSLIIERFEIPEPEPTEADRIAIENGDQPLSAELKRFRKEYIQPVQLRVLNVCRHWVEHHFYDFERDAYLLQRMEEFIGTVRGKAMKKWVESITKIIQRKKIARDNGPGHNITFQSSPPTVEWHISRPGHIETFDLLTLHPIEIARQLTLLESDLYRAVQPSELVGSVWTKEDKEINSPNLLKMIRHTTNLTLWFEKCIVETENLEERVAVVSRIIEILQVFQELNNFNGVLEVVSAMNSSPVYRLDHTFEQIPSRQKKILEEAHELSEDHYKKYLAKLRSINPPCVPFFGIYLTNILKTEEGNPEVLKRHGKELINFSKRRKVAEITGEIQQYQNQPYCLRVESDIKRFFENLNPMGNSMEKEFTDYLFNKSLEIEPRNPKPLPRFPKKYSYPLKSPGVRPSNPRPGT
Chain of SOS1 catalytic domain (residues 564-1049) (Q07889 564-1049): as above

Take `C[C@@H](Nc1ncnc2c1cc(C1(F)CCS(=O)(=NC3CC3)CC1)c(=O)n2C)c1cccc(C(F)F)c1F` (single isomer, unassigned) [Example 57]: the IC50 in assay [1] amounted to 7.65 nM; in assay [2] (Homo sapiens, PC-9, 1 h) it was 42.6 nM. Moreover, the Kd in assay [3] came out at 9.19 nM.
The matching figures for `C[C@@H](Nc1ncnc2c1cc(C1=CCNC1)c(=O)n2C)c1cccc(C(F)F)c1F` [Example 1-1]: 41.5 nM, 140 nM and 59.1 nM.
The matching figures for `C[C@@H](Nc1ncnc2c1cc(C1=CCNCC1)c(=O)n2C)c1cccc(C(F)(F)F)c1` [Example 1-2]: 23.8 nM, 114 nM and 13.4 nM.
In the same order, the values of `C[C@@H](Nc1ncnc2c1cc(C1=CCNCC1)c(=O)n2C)c1cccc(C(F)F)c1F` [Example 1-3] are 21.2 nM, 50.3 nM and 7.86 nM.
On to `C[C@@H](Nc1ncnc2c1cc(C1=CCOCC1)c(=O)n2C)c1cccc(C(F)F)c1F` [Example 1-5], for which the IC50 in assay [1] stood at 32 nM; in assay [2] (Homo sapiens, PC-9, 1 h) it was 222 nM. Binding in assay [3] was put at a Kd of 16.3 nM.
With `Cc1nc(N[C@H](C)c2cccc(C(F)F)c2F)c2cc(C3=CCOC3)c(=O)n(C)c2n1` [Example 1-7], the IC50 in assay [1] stood at 257 nM; in assay [2] (Homo sapiens, PC-9, 1 h), 693 nM. Moreover, the Kd in assay [3] turned out to be 353 nM.
For the compound `C[C@@H](Nc1ncnc2c1cc(C1=CCN(C)CC1)c(=O)n2C)c1cccc(C(F)(F)F)c1` [Example 1-8], the IC50 worked out at 20.1 nM in assay [1] and 169 nM in assay [2] (Homo sapiens, PC-9, 1 h). Also, in assay [3], binding was put at a Kd of 20 nM.
Regarding `Cc1nc(N[C@H](C)c2cccc(C(F)F)c2F)c2cc(N3CC(F)(F)C3)c(=O)n(C)c2n1` [Example 2-2], the IC50 in assay [1] is 2080 nM; in assay [2] (Homo sapiens, PC-9, 1 h), 427 nM.
Regarding `Cc1nc(N[C@H](C)c2cccc(C(F)F)c2F)c2cc(N3CC4(COC4)C3)c(=O)n(C)c2n1` [Example 2-3], the IC50 in assay [2] (Homo sapiens, PC-9, 1 h) worked out at 188 nM. In assay [3], this compound displayed a Kd of 89 nM.
`C[C@@H](Nc1ncnc2c1cc(C1CCN(CCF)CC1)c(=O)n2C)c1cccc(C(F)F)c1F` [Example 8-4] had an IC50 in assay [1] of 7.66 nM. In assay [3], this compound gave a Kd of 29.4 nM.
The matching figures for `C[C@@H](Nc1ncnc2c1cc(C1CCS(=O)(=O)CC1)c(=O)n2C)c1cccc(C(F)F)c1F` [Example 8-5]: 12.8 nM and 37.6 nM.
The matching figures for `C[C@@H](Nc1ncnc2c1cc(C1CCN(C3COC3)CC1)c(=O)n2C)c1cccc(C(F)F)c1F` [Example 8-8]: 30.5 nM and 62 nM.
The matching figures for `CC(=O)N1CCC(c2cc3c(N[C@H](C)c4cccc(C(F)F)c4F)nc(C)nc3n(C)c2=O)CC1` [Example 8-9]: 53.6 nM and 120 nM.
In assay [1], `Cc1nc(N[C@H](C)c2cccc(C(F)F)c2F)c2cc(C3CCS(=O)(=O)CC3)c(=O)n(C)c2n1` [Example 8-12] registered an IC50 of 65 nM. Moreover, the Kd in assay [3] was 83.4 nM.
The compound `C[C@@H](Nc1ncnc2c1cc(C1CCN(CC(F)F)CC1)c(=O)n2C)c1cccc(C(F)F)c1F` [Example 8-13] returned an IC50 in assay [1] of 39.8 nM. The compound further yielded a Kd in assay [3] of 156 nM.
The matching figures for `Cc1nc(N[C@H](C)c2cccc(C(F)F)c2F)c2cc(C3CCN(C4COC4)CC3)c(=O)n(C)c2n1` [Example 8-14]: 81.2 nM and 200 nM.
In the case of `C[C@@H](Nc1ncnc2c1cc(C1CCN(S(C)(=O)=O)CC1)c(=O)n2C)c1cccc(C(F)F)c1F` [Example 8-15], in assay [1], the IC50 is 40.1 nM. In assay [3], this compound showed a Kd of 90.4 nM.
In the same order, the values of `C[C@@H](Nc1ncnc2c1cc(C1CCN(CC(F)(F)F)CC1)c(=O)n2C)c1cccc(C(F)F)c1F` [Example 8-16] are 77.5 nM and 136 nM.
In the same order, the values of `Cc1nc(N[C@H](C)c2cccc(C(F)F)c2F)c2cc(C3CCN(CC(F)(F)F)CC3)c(=O)n(C)c2n1` [Example 8-17] are 708 nM and 796 nM.
Regarding `Cc1nc(N[C@H](C)c2cccc(C(F)F)c2F)c2cc(C3=CCCOC3)c(=O)n(CCO)c2n1` [Example 11-1], binding in assay [3] was characterised by a dissociation constant (Kd) of 81.3 nM.
In assay [1], `COc1ccc(Cc2cc3c(N[C@H](C)c4cccc(C(F)F)c4F)nc(C)nc3n(C)c2=O)cc1OC` [Example 20-1] showed an IC50 of 6170 nM.
On the same count and under the same terms, under `COc1cccc(Cc2cc3c(N[C@H](C)c4cccc(C(F)F)c4F)nc(C)nc3n(C)c2=O)c1OC` [Example 20] stands > 20000 nM.
As for `C[C@@H](Nc1ncnc2c1cc(-c1ccc[nH]1)c(=O)n2C)c1cccc(C(F)F)c1F` [Example 21-1], in assay [1], the IC50 stood at 1070 nM. In addition, the Kd in assay [3] is 1160 nM.
Consider `C[C@@H](Nc1ncnc2c1cc(-c1cncnc1)c(=O)n2C)c1cccc(C(F)F)c1F` [Example 21-2], for which the IC50 in assay [1] turned out to be 42.9 nM. In assay [3], the Kd is 85.4 nM.
Consider `Cc1nc(N[C@H](C)c2cccc(C(F)F)c2F)c2cc(-c3ccnnc3)c(=O)n(C)c2n1` [Example 21-3], for which, in assay [1], the IC50 worked out at 120 nM. Also, the affinity in assay [3], expressed as Kd, was 330 nM.
In the same order, the values of `Cc1nc(N[C@H](C)c2cccc(C(F)F)c2F)c2cc(-c3cncnc3)c(=O)n(C)c2n1` [Example 21-4] are 172 nM and 272 nM.
In turn, `C[C@@H](Nc1ncnc2c1cc(-c1cnc(F)nc1)c(=O)n2C)c1cccc(C(F)F)c1F` [Example 21-5] had an IC50 in assay [1] of 126 nM. The same compound showed a Kd in assay [3] of 115 nM.
Take `C[C@@H](Nc1ncnc2c1cc(-c1ccccc1C#N)c(=O)n2C)c1cccc(C(F)F)c1F` [Example 21-6]: half-maximal inhibition in assay [1] (IC50) required 86.4 nM. In assay [3], this compound showed a Kd of 118 nM.
In the same order, the values of `COc1ncccc1-c1cc2c(N[C@H](C)c3cccc(C(F)F)c3F)ncnc2n(C)c1=O` [Example 21-7] are 47.1 nM and 92.5 nM.
`C[C@@H](Nc1ncnc2c1cc(-c1ccc3nonc3c1)c(=O)n2C)c1cccc(C(F)F)c1F` [Example 21-8] gave an IC50 in assay [1] of 235 nM. The compound further came in with a Kd in assay [3] of 336 nM.
On to `C[C@@H](Nc1ncnc2c1cc(C(=O)N1CC3CC1CO3)c(=O)n2C)c1cccc(C(F)F)c1F` (stereo partly drawn) [Example 26-6], for which the half-maximal inhibitory concentration (IC50) in assay [1] is > 20000 nM; in assay [2] (Homo sapiens, PC-9, 1 h), 8830 nM.
In the same order, the values of `COC1(c2cc3c(N[C@H](C)c4cccc(C(F)F)c4F)nc(C)nc3n(C)c2=O)CCN(C(C)=O)CC1` [Example 32-32] are 4.77 nM and 9.79 nM.
Regarding `COC1(c2cc3c(N[C@H](C)c4nccc(C(F)F)c4F)ncnc3n(C)c2=O)CCN(C(C)=O)CC1` [Example 62, 6-(1-acetyl-4-methoxy-4-piperidyl)-4-[[(1R)-1-[4-(difluoromethyl)-3-fluoro-2-pyridyl]ethyl]amino]-8-methyl-pyrido[2,3-d]pyrimidin-7-one], in assay [2] (Homo sapiens, PC-9, 1 h), the IC50 was 262 nM.
On the same count and under the same terms, the result for `C[C@@H](Nc1ncnc2c1cc(C1=CCS(=O)(=O)CC1)c(=O)n2C)c1cccc(C(F)F)c1CC#N` [Example 63, 2-[2-(difluoromethyl)-6-[(1R)-1-[[6-(1,1-dioxo-3,6-dihydro-2H-thiopyran-4-yl)-8-methyl-7-oxo-pyrido[2,3-d]pyrimidin-4-yl]amino]ethyl]phenyl]acetonitrile] reads > 10000 nM.
For `C[C@@H](Nc1ncnc2c1cc(C1=CCS(=O)(=NC3COC3)CC1)c(=O)n2C)c1cccc(C(F)F)c1F` (stereo partly drawn) [Example 65, 4-(((R)-1-(3-(difluoromethyl)-2-fluorophenyl)ethyl)amino)-8-methyl-6-((S)-1-(oxetan-3-ylimino)-1-oxido-1,2,3,6-tetrahydro-1λ^6-thiopyran-4-yl)pyrido[2,3-d]pyrimidin-7(8H)-one], the 50% inhibitory concentration (IC50) in assay [2] worked out at 66.8 nM.
The same measure, in the same setting: the result for `C[C@@H](Nc1ncnc2c1cc(C1=CCS(=O)(=NC3COC3)CC1)c(=O)n2C)c1cccc(C(F)F)c1F` (stereo partly drawn) [Example 66, 4-(((R)-1-(3-(difluoromethyl)-2-fluorophenyl)ethyl)amino)-8-methyl-6-((R)-1-(oxetan-3-ylimino)-1-oxido-1,2,3,6-tetrahydro-1λ^6-thiopyran-4-yl)pyrido[2,3-d]pyrimidin-7(8H)-one] reads 29.1 nM.
Turning to `C[C@@H](Nc1ncnc2c1cc(C1CCS(=N)(=O)CC1)c(=O)n2C)c1cccc(C(F)F)c1F` (stereo partly drawn) [Example 67, 4-[[(1R)-1-[3-(difluoromethyl)-2-fluoro-phenyl]ethyl]amino]-6-(1-imino-1-oxo-thian-4-yl)-8-methyl-pyrido[2,3-d]pyrimidin-7-one], in assay [2] (Homo sapiens, PC-9, 1 h), the IC50 turned out to be 16.1 nM.
On to `COC1(c2cc3c(N[C@H](C)c4cccc(C(F)F)c4F)ncnc3n(C)c2=O)CCC2(CC1)CS(=O)(=NC1CC1)C2` (stereo partly drawn) [Example 68-1], for which the IC50 in assay [2] (Homo sapiens, PC-9, 1 h) was 24.1 nM.
With `COC1(c2cc3c(C[C@H](C)c4cccc(C(F)F)c4F)ncnc3n(C)c2=O)CC2(C1)CS(=O)(=NC1CC1)C2` (stereo partly drawn) [Example 68-2], the 50% inhibitory concentration (IC50) in assay [2] (Homo sapiens, PC-9, 1 h) was determined as 136 nM.
Turning to `COC1(c2cc3c(C[C@H](C)c4cccc(C(F)F)c4F)ncnc3n(C)c2=O)CC2(C1)CS(=O)(=NC1CC1)C2` (stereo partly drawn) [Example 68-3], in assay [2], the IC50 was determined as 100 nM.
Regarding `CC(=O)NC12CC(c3cc4c(N[C@H](C)c5cccc(C(F)F)c5F)ncnc4n(C)c3=O)(C1)C2` [Example 70, N-[3-(4-{[(1R)-1-[3-(difluoromethyl)-2-fluorophenyl]ethyl]amino}-8-methyl-7-oxo-7H,8H-pyrido[2,3-d]pyrimidin-6-yl)bicyclo[1.1.1]pentan-1-yl]acetamide], the IC50 in assay [2] (Homo sapiens, PC-9, 1 h) turned out to be 121 nM.
The same measure, in the same setting: under `COC1(c2cc3c(N[C@H](C)c4ccnc(C(F)F)c4F)ncnc3n(C)c2=O)CCN(C(C)=O)CC1` [Example 71, 6-(1-acetyl-4-methoxy-4-piperidyl)-4-[[(1R)-1-[2-(difluoromethyl)-3-fluoro-4-pyridyl]ethyl]amino]-8-methyl-pyrido-[2,3-d]pyrimidin-7-one] stands 528 nM.
